Marks after values point to notes of the source that are not given here.
test: logP determination via retention times, calibrated with unbranched alkan-2-ones; type: physicochemical; conditions: HPLC on reversed-phase C 18, EEC Directive 79/831 Annex V.A8; method *: 40° C., 0.1% aqueous formic acid and acetonitrile, linear gradient 10% to 95% acetonitrile

SMILES	logP
FC(F)Oc1cccc(Nc2ncc(Cl)c(NC3CC3)n2)c1 [compound 534]	2.51*
C#Cc1cccc(Nc2ncc(Cl)c(NC3CC3)n2)c1 [compound 502]	2.24*
Brc1ccc(Nc2ncc(Br)c(NCC3CC3)n2)cc1 [compound 472]	2.84*
O=CNc1cccc(Nc2ncc(Cl)c(NCC3CC3)n2)c1 [compound 546]	1.46*
O=C(Nc1cccc(Nc2ncc(Br)c(NCC3CC3)n2)c1)c1ccccc1 [compound 492]	2.29*
COc1cc(Nc2ncc(Br)c(NC3CC3)n2)cc(OC)c1 [compound 563]	2.15*

same assay, conditions: HPLC on reversed-phase C 18, method **: 43° C.; 0.1% aqueous phosphoric acid and acetonitrile; linear gradient 10% to 95% acetonitrile

SMILES	logP
CN(c1nc(Nc2ccccc2)ncc1Cl)C1CC1 [compound 734]	2.7**

same assay, conditions: HPLC on reversed-phase C18, method *: 40° C., 0.1% aqueous formic acid and acetonitrile, linear gradient 10% to 95% acetonitrile

SMILES	logP
FC(F)C(F)(F)Oc1ccc(Nc2ncc(Cl)c(NC3CC3)n2)cc1 [compound 108]	2.65*
NS(=O)(=O)c1cc(Nc2ncc(Cl)c(NC3CC3)n2)ccc1Cl [compound 949]	1.66*
CC(C)c1ccccc1Nc1ncc(Cl)c(NC2CC2)n1 [compound 872]	1.96*
O=C1OCCN1c1ccc(Nc2ncc(Cl)c(NCC3CC3)n2)cc1 [compound 160]	1.39*
Cc1cc(Nc2ncc(Br)c(NC3CC3)n2)ccc1O [compound 116]	1.35*
Fc1cccc(Nc2ncc(Cl)c(NC3CC3)n2)c1F [compound 946]	2.53*
CCOc1ccccc1Nc1ncc(Cl)c(NC2CC2)n1 [compound 876]	2.13*
CCOC(=O)Nc1ccc(Nc2ncc(Cl)c(NC3CC3)n2)cc1 [compound 977]	1.63*
COC(=O)Nc1ccc(Nc2ncc(Cl)c(NCC3CC3)n2)cc1 [compound 153]	1.44*
OCc1cccc(Nc2ncc(Br)c(NC3CC3)n2)c1 [compound 766]	1.37*
COCc1cccc(Nc2ncc(C(F)F)c(NCC3CC3)n2)c1 [compound 772]	1.73*
FC(F)(F)c1cnc(Nc2ccccc2)nc1NCC1CC1 [compound 922]	2.99*

same assay, conditions: HPLC on reversed-phase C18, method *: 40° C.; mobile phase 0.1% aqueous formic acid and acetonitrile; linear gradient 10% to 95% acetonitrile

SMILES	logP
CC(C)OC(=O)Nc1cccc(Nc2ncc(Cl)c(NC3CC3)n2)c1 [compound 302]	1.99*
Clc1cnc(Nc2ccc3c(c2)OCO3)nc1NC1CC1 [compound 295]	1.59*
CCOC(=O)C1(Nc2nc(Nc3cccc(Cl)c3)ncc2Cl)CC1 [compound 316]	3.13*
CCOc1ccc(Nc2ncc(Br)c(NC3CC3)n2)cc1 [compound 308]	1.87*
Cc1cc(C)cc(Nc2ncc(Cl)c(NC3CC3)n2)c1 [compound 274]	2.13*
Clc1cnc(Nc2ccc(Br)cc2)nc1NC1CC1 [compound 281]	2.55*
Clc1cc(Cl)cc(Nc2ncc(Cl)c(NC3CC3)n2)c1 [compound 291]	4.04*

same assay, conditions: HPLC on reversed-phase C18 column (EEC Directive 79/831 Annex V.A8); method *: 40° C.; 0.1% aqueous formic acid and acetonitrile; linear gradient 10% to 95% acetonitrile

SMILES	logP
CC(C)(C)C(=O)Nc1ccc(Nc2ncc(C(F)(F)F)c(NCC3CC3)n2)cc1 [compound 201]	2.6*
O=C(Nc1ccc(Nc2ncc(C(F)(F)F)c(NCC3CC3)n2)cc1)C(F)(F)F [compound 203]	2.84*
COC(c1cccc(Nc2ncc(Cl)c(NC3CC3)n2)c1)C(F)(F)F (stereo not shown) [compound 270]	2.69*

same assay, conditions: HPLC reversed-phase C 18, EEC Directive 79/831 Annex V.A8; method *: 40° C., 0.1% aqueous formic acid and acetonitrile, linear gradient 10% to 95% acetonitrile

SMILES	logP
CSC(C)c1cccc(Nc2ncc(Br)c(NC3CC3)n2)c1 (stereo not shown) [compound 811]	2.63*
CCCS(=O)(=O)c1cccc(Nc2ncc(Cl)c(NC3CC3)n2)c1 [compound 852]	2.25*
ClC1(Cl)CC1CNc1nc(Nc2ccccc2)ncc1Br (stereo not shown) [compound 808]	2.6*
COC(C)c1cccc(Nc2ncc(Br)c(NC3CC3)n2)c1 (stereo not shown) [compound 805]	2.08*

same assay, conditions: method **: HPLC reversed-phase C 18, 43° C., 0.1% aqueous phosphoric acid and acetonitrile, linear gradient 10% to 95% acetonitrile

SMILES	logP
NS(=O)(=O)c1ccc(Nc2ncc(F)c(NC3CC3)n2)cc1 [compound 46]	0.95**
COc1cc(Nc2ncc(Cl)c(NCC3CC3)n2)cc(OC)c1 [compound 11]	2.09**
NS(=O)(=O)c1cc(Nc2ncc(Cl)c(NCC3CC3)n2)cc(C(F)(F)F)c1 [Example 18]	2.63**

same assay, conditions: method **: HPLC, reversed-phase C 18, 43° C., mobile phase 0.1% aqueous phosphoric acid and acetonitrile, linear gradient from 10% to 95% acetonitrile

SMILES	logP
CN(C)C(=O)c1ccc(Nc2ncc(Cl)c(NC3CC3(C)C)n2)cc1 (stereo not shown) [compound 1030]	1.86**
C=CCOc1cccc(Nc2ncc(C(F)(F)F)c(NC3CC3)n2)c1 [compound 1024]	3.54**
N#Cc1cc(Nc2ncc(Cl)c(NC3CC3)n2)cc(C(F)(F)F)c1 [compound 1017]	3.69**

same assay, conditions: method *: HPLC reversed-phase C18, 40° C., 0.1% aqueous formic acid and acetonitrile, linear gradient 10% to 95% acetonitrile

SMILES	logP
Clc1cnc(Nc2ccccc2)nc1NC1CC1 [Example 76]	1.84*
C=CCS(=O)(=O)c1ccc(Nc2ncc(Cl)c(NC3CC3)n2)cc1 [Example 61]	2.18*
CC1(C(=O)Nc2ccc(Nc3ncc(Cl)c(NC4CC4)n3)cc2)CC1 [Example 64]	1.66*
CC(C)COc1cccc(Nc2ncc(Cl)c(NC3CC3)n2)c1 [compound 444]	3.17*
Cc1cnc(Nc2ccccc2)nc1NC1CC1 [Example 51]	1.5*
Clc1cccc(Nc2ncc(Cl)c(NC3CC3)n2)c1 [compound 1]	2.7*
Fc1ccc(Nc2ncc(Cl)c(NC3CC3)n2)cc1 [Example 80]	1.8*
CC(C)(C)C(=O)Nc1ccc(Nc2ncc(Br)c(NCC3CC3)n2)cc1 [compound 450]	1.99*

same assay, conditions: method *: HPLC reversed-phase C 18, temperature 40° C.; mobile phase 0.1% aqueous formic acid and acetonitrile; linear gradient 10% to 95% acetonitrile

SMILES	logP
Fc1cnc(Nc2cccc(OC(F)(F)F)c2)nc1NC1CC1 [compound 576]	2.33*
O=C1OCCN1c1ccc(Nc2ncc(F)c(NC3CC3)n2)cc1 [compound 592]	1.23*
O=C1CCCN1c1ccc(Nc2ncc(F)c(NC3CC3)n2)cc1 [compound 593]	1.35*
N#Cc1cccc(Nc2ncc(F)c(NC3CC3)n2)c1 [compound 571]	1.61*
O=C1CCCN1c1cccc(Nc2ncc(F)c(NC3CC3)n2)c1 [compound 599]	1.37*

same assay, conditions: method *: HPLC, reversed-phase C 18, 40° C., mobile phase 0.1% aqueous formic acid and acetonitrile, linear gradient from 10% to 95% acetonitrile

SMILES	logP
CN(C)C(=O)c1ccc(Nc2ncc(Cl)c(NC3CC3(C)C)n2)cc1 (stereo not shown) [compound 1030]	1.86*;
CN(c1nc(Nc2cccc(N3CCOC3=O)c2)ncc1Cl)C1CC1 [compound 1055]	2.13*
CCC(CC)c1ccc(Nc2ncc(C(F)(F)F)c(NC3CC3)n2)cc1 [compound 1032]	4.92*
